Assays:
[1] = In vivo detection of RPCs in muscle tissue (gamma imaging after i.v. 99mTc gluceptate); conditions: rats, rectus femoris muscle injected with RPC; 1 hour after i.v. injection of 0.5 mCi 99mTc gluceptate
Description: RPCs having the sequences GGGCGGGCGGGC (SEQ ID NO: 13) and GGGCGGGC (SEQ ID NO: 14) were dissolved in sterile saline to give a concentration of 1 μM thiol (i.e., the —SH function groups of cysteine residues). 100 μl of this solution was injected into the rectus femoris muscles of anesthetized rats. Ten minutes after injection, 0.5 mCi of ^99mTc gluceptate-[bis(oxotechnetate(v)glucoheptonate] anion was injected via intravenous catheter. The animals were imaged at 10 minutes and at 1 hour after the injection of the isotope. It was suspected that Tc glucoheptonate can permeate into the interstitium and be taken up non-specifically (e.g., by pinocytosis) by resident cells, thus creating background activity.
Nonetheless, the radioactivity that had accumulated in the injected muscle 1 hour after injection with the RPC containing three consecutive GGGC repeats (SEQ ID NO: 13) or two consecutive GGGC repeats (SEQ ID NO: 14) were 3- or 2-fold higher, respectively, than the radioactivity that had accumulated in the contralateral (control) muscle at that time. No differences in radioactivity accumulated in injected vs. control muscles were detected in animals injected with saline, or an RPC pretreated with N-ethylmaleimide to block oxotechnetate-binding sites.

[2] = Labeling of RPC with 99mTc-glucoheptonate and stability of the metal-RPC complex by reverse-phase HPLC; assay type: binding
Description: The tetrapeptide WGGC (SEQ ID NO: 1) was incubated with ^99mTc-gluccheptonate. […] The label was ascertained to be stably associated with the peptide for at least 24 hours as determined by reverse-phase high performance liquid chromatography (HPLC) (see, FIG. 7).
FIGS. 6 and 7 are the HPLC traces corresponding to the binding 30 minutes and 24 hours post-injection, respectively. In both traces, the bold line represents radioactivity and the thin line represents absorbance. The naked ^99mTc-glucoheptonate has a retention time of 2 minutes, while the RPC-Tc complex has a retention time of 5 to 9 minutes.

| Substance | radioactivity accumulated in the injected muscle vs. the contralateral (control) muscle [1] | radiation at 2 minutes (retention time of naked 99mTc-glucoheptonate) ([2]; 30 minutes, HPLC radioactivity trace (FIG. 6)) | share of total integral at 2 minutes (retention time of naked 99mTc-glucoheptonate) ([2]; 24 hours, HPLC radioactivity trace (FIG. 7)) | labeling of the peptide ([2]; incubated with 99mTc-glucoheptonate, within 30 minutes) | time the label is stably associated with the peptide ([2]; reverse-phase HPLC) |
| --- | --- | --- | --- | --- | --- |
| GGGCGGGC [SEQ ID NO: 14, RPC containing two consecutive GGGC repeats] | 2 fold |  |  |  |  |
| GGGCGGGCGGGC [SEQ ID NO: 13] | 3 fold |  |  |  |  |
| WGGC |  | no radiation is observed above the baseline | 0.468% | 99% | at least 24 hours |

— patent publication US20020142297A1, “Compositions and methods for imaging gene expression” (The General Hospital Corporation, a Massachusetts …, priority 1997, published 2002)
